Measured values published in patent US20060246104A1, “Stable rgd peptidomimetic composition” (priority 2003, published 2006).

Assays:
3T3 fibroblasts = assay: Cell adhesion assay (cell area coverage on surface-immobilized substrates); assay type: cell-based; conditions: substance surface-immobilized on tissue culture plastic; 3T3 cells, 24 hrs; relative to untreated tissue culture plastic
From the text: For this study, we immobilized AAGPAHA and the peptide GRGDSP on dextran-coated tissue culture plastic dishes in a series of steps shown in FIGS. 2-4. Multi-well cell culture dishes were first surface-aminated by adsorbing poly-lysine (FIG. 2). Dextran was then immobilized on these surfaces (FIG. 3) using reported methods (Massia, Biomaterials 21:2753-61, 2000). AAGPAHA and GRGDSP were then surface-immobilized on dextran-coated tissue culture plastic (FIG. 4) using reported methods (Massia, J Biomed Mater Res 56:390-99, 2001). Dextran substrates were activated by oxidation of the glucose subunits (Glc) with sodium metaperiodate to convert Glc subunits to […]. […]
Cell area coverage assays were performed to assess the extent of 3T3 cell adhesion and spreading on all substrates. […] Following incubation, samples were fixed (3.8% formaldehyde in phosphate buffered saline (PBS) for 5 min. and stained with 0.1% aqueous toluidine blue (5 min). Stained cells were then examined using phase contrast or stereomicroscopy (Leica) at 100× magnification. Three random 100× fields were selected for each substrate for analysis. The extent of cell adhesion was determined for each captured digital image by calculating a percentage of cell area coverage using digital image analysis software. Final data were presented as a percentage of control adhesion. […]

trypsin = assay: Enzymatic stability in trypsin solution, MALDI-TOF mass spectrometry; assay type: in vitro ADME; conditions: for decrease in mass peak size after treatment with trypsin / mass peak intensity after trypsin exposure / degradation after prolonged trypsin exposure / mass peak intensity after prolonged trypsin exposure: 0.05 mM trypsin; for decrease in mass peak size after treatment with trypsin / mass peak intensity after trypsin exposure / mass peak intensity before trypsin exposure: 1 hr, 37° C.; for mass peak intensity after trypsin exposure / mass peak intensity before trypsin exposure: HEPES pH 8, 0.4 mM; for degradation after prolonged trypsin exposure / mass peak intensity after prolonged trypsin exposure / mass peak intensity before prolonged trypsin exposure: 16 hrs, room temperature; for mass peak intensity before trypsin exposure / mass peak intensity before prolonged trypsin exposure: control without trypsin
Protocol: GRGDSP and AAGPAHA were mixed with trypsin solution in HEPES buffer (10 mM, pH=8) to a final solution of 0.4 mM peptide and 0.05 mM (0.12%) trypsin and incubated at 37° C. for 1 hr. In a control experiment, both peptides were dissolved in the same buffer without trypsin at the same final concentrations and incubated at 37° C. for 1 hr. Similarly, in another set of experiments, the same samples were incubated at room temperature overnight. At the end of the incubation period, trypsin activity was quenched by adding inhibitor; and the samples were analyzed by MALDI-TOF mass spectrometry to assess the extent of degradation.

[1] = system: 3T3 cell adhesion and spreading (integrin-mediated); assay: Cell adhesion inhibition assay (soluble competitor against grafted substrate); assay type: cell-based; conditions: soluble GRGDSP 1 mg/mL, 3T3 cells, 24 hrs
Protocol: The cell line utilized in these studies were 3T3 fibroblasts (ATCC # CRL-6476, Manassas, Va.). 3T3 cells were maintained in Dulbecco's modified Eagle medium (DMEM) with 10% fetal bovine serum (FBS) at 37° C. in saturated humidity. All cell culture media and reagents were obtained from Life Technologies, Inc. (Rockville, Md.).
Cell area coverage assays were performed to assess the extent of 3T3 cell adhesion and spreading on all substrates. 3T3 cells were seeded on 24-well culture dishes (15,000 cells/well) and incubated for 24 hrs. Following incubation, samples were fixed (3.8% formaldehyde in phosphate buffered saline (PBS) for 5 min. and stained with 0.1% aqueous toluidine blue (5 min). Stained cells were then examined using phase contrast or stereomicroscopy (Leica) at 100× magnification. Three random 100× fields were selected for each substrate for analysis. The extent of cell adhesion was determined for each captured digital image by calculating a percentage of cell area coverage using digital image analysis software. Final data were presented as a percentage of control adhesion.
The percentage of control adhesion was calculated by multiplying the ratio of % area coverage on dextran-coated, peptide-grafted, or peptidomimetic-grafted substrates to % cell area coverage on untreated tissue culture plastic by 100. […]

N=C(N)NCCCC(N)C(=O)NCCCCC(N)C(=O)O (stereo not shown) [AAGPAHA, 2-amino-6-[(2-amino-5{guanidino}pentanoyl)amino]hexanoic acid]
percentage of control adhesion (cell area coverage) (3T3 fibroblasts): 105.9±12.8 % control
decrease in mass peak size after treatment with trypsin (trypsin): no significant change
mass peak intensity after trypsin exposure (trypsin): the same
degradation after prolonged trypsin exposure (trypsin): highly resistant to trypsin-mediated degradation
mass peak intensity after prolonged trypsin exposure (trypsin): the same
mass peak intensity before trypsin exposure (trypsin): 1.2×10^4
mass peak intensity before prolonged trypsin exposure (trypsin): 1.2×10^4

GRGDSP
percentage of control adhesion (cell area coverage) (3T3 fibroblasts): 124.3±4.1 % control
percentage of control adhesion on surface-immobilized AAGPAHA in presence of soluble compound [1]: 5.7%±6.9%
percentage of control adhesion on surface-immobilized AAGPAHA in presence of soluble compound ([1]; listed as RGD peptide): decreased cell coverage
decrease in mass peak size after treatment with trypsin (trypsin): 73%
mass peak intensity after trypsin exposure (trypsin): 4.0×10^3
degradation after prolonged trypsin exposure (trypsin): about 98%
mass peak intensity after prolonged trypsin exposure (trypsin): 3.0×10^2
mass peak intensity before trypsin exposure (trypsin): 1.5×10^4
mass peak intensity before prolonged trypsin exposure (trypsin): 1.5×10^4
